Test results as given in patent US20110027205A1, “USE OF MYRTLE EXTRACT AS DEPIGMENTING AGENT” (PIERRE FABRE DERMO-COSMETIQUE, priority 2008, published 2011).

Test system: melanocytes
Experiment: Activity on melanogenesis (melanin content of melanocytes, 450 nm)
Format: cell-based
Details: Melanocyte, 72 hours, read-out: % inhibition of melanin synthesis
Procedure: The melanocytes are left to incubate in a suitable culture medium at 37° C. for 72 hours in contact with the myrtle extract according to example 1, at different concentrations, and with hydroquinone, the reference substance. At the end of the incubation period, the melanocytes are collected and washed. The cells are then treated with a sodium solution to extract the melanin. The stained solutions are then assayed under 450 nm spectrophotometry for their melanin content using a calibration curve. A melanogenesis-inhibiting activity of the tested products will translate as a lower melanin content in the extracted melanocyte solutions. A prior cytotoxicity test is evidently performed on these same cells to verify the non-toxicity of the extracts at the tested concentrations.

`Oc1ccc(O)cc1` [Hydroquinone] was tested, and the inhibition at 5 µM (0.005 mM) was 35.7% and the inhibition at 10 µM (0.01 mM) was 58%.
